Values of other authors, collected in US20230416797A1, “MODULATING ANTIMICROBIAL PEPTIDE HALF-LIFE” (Syngulon SA., priority 2020, published 2023).

B1: Ent35-MccV: fusion bacteriocin: N-terminal glycine, Enterocin CRL35, a linker comprising three glycines, and a C-terminal Microcin V (protein)
chain: GKYYGNGVSCNKKGCSVDWGRAIGIIGNNSAANLATGGAAGWKSGGGASGRDIAMAIGTLSGQFVAGGIGAAAGGVAGGAIYDYASTHKPNPAMSPSGLGGTIKQKPEGIPSEAWNYAAGRLCNWSPNNLSDVCL
modifications: Hybrid bacteriocin Ent35-MccV
notes: fusion bacteriocin: N-terminal glycine, Enterocin CRL35, a linker comprising three glycines, and a C-terminal Microcin V

How the values were obtained:
[1] = system: fungal microbial organism; settings: from B. subtilis; Zuber et al. (1993), Shenin et al. (1995)
Candida species = settings: against Candida species; Shekh and Roy (2012)
[2] = system: pathogenic Gram-positive and Gram-negative bacteria; settings: against pathogenic Gram-positive and Gram-negative bacteria; Acuña et al. (2012)

Molecule | antifungal activities [1] | also measured
aurin B1 | antifungal activities | –
WLPPAGLLGRCGRWFRPWLLWLQ SGAQY KWLGNLFGLGPK (WLPPAGLLGRCGRWFRPWLLWLQSGAQYKWLGNLFGLGPK; listed as Enterococcus faecalis) [SEQ ID NO: 1, an Enterococcus faecalis peptide] | – | neutralizing activity (Candida species): neutralizing activity
botrycidin AJ1316 | antifungal activities | –
B1 | – | antimicrobial activity [2]: antimicrobial activity
